Legend:
full length dynamin I = target: T1, full length dynamin I (UniProt Q05193); test: Basal dynamin GTPase activity in the absence of PS liposomes or other template (ring stabilizer activity); type: biochemical, sheep; settings: 0.2 μM dyn1, 7 μM compound, 10 μM Gsn-F-actin complexes, FIG. 18
T1 construct: rows headed: basal rate of GTP hydrolysis of dynamin
T1 sequence (Q05193 1-864): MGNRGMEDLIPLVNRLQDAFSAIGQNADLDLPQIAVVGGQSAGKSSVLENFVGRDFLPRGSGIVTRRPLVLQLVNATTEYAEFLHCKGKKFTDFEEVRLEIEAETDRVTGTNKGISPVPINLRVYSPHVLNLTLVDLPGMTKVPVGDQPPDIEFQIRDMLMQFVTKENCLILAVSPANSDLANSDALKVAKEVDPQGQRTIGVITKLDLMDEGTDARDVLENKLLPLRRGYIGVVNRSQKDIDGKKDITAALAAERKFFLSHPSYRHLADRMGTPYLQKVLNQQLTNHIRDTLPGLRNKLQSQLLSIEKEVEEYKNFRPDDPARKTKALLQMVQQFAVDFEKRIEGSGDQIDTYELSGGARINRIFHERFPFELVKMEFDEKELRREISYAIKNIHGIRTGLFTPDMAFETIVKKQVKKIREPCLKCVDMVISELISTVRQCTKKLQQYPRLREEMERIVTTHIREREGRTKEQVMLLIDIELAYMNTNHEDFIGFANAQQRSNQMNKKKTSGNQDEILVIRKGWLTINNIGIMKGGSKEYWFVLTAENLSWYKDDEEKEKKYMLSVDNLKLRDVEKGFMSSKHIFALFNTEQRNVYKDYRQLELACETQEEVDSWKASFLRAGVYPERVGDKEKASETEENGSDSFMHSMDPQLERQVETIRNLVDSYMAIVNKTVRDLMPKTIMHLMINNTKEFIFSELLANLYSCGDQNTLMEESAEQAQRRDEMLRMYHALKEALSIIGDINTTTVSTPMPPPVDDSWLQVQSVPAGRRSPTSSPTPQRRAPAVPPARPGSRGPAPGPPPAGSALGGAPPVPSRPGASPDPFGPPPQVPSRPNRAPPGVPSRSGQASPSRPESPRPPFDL

[1] = tested on: truncated dynamin I construct known as GG2; test: Basal GTPase activity of assembly-incompetent dynamin construct GG2; type: biochemical; settings: FIG. 5
From the text: FIG. 5 is a graph showing the basal GTPase activity of the truncated dynamin I construct known as GG2, containing only the GTPase domain linked to a small part of the GED domain (Chappie et al 2009). Unlike full length dynamin this construct is known to be unable to self-assemble or to form rings. Bis-T-22 and -23 and imminodyn-22 have no effect on the basal activity of this assembly-incompetent construct.
To verify that ring stabilizers require dynamin oligomerisation, a recombinant form of dynamin, called GG-2, which is dimeric yet is unable to self-associate into higher order oligomers (Chappie et al 2009) was tested. Ring stabilizers are unable to stimulate the basal activity of such constructs (FIG. 5).

[2] = tested on: purified full length dynamin I; test: Electron microscopy of dynamin ring formation in the absence of a template; type: biochemical; settings: 5.4 μM, 200 nM dynamin, no template, FIG. 9C
Method: Dynamin was then examined by electron microscopy. […] The rings are bona fide dynamin rings (B).
Next, the effect of a ring stabilizer Bis-T-23 on the formation of dynamin rings in the absence of a template like PS liposomes was examined. At high concentrations in vitro, dynamin is well known to self-assemble into rings that are detectable by EM (Hinshaw and Schmid, 1995). Such self assembly requires high dynamin concentrations typically in the order of 500-1000 nM and is not observed at lower dynamin concentrations. Specifically, the effect of Bis-T-23 (5.4 μM) on 200 nM dynamin in the absence of template was tested, which is well below the concentration threshold for self-assembly. […] High power images confirmed that the electron dense structures are bona fide dynamin rings (FIG. 9B). […] The findings with basal dynamin are completely unexpected for a dynamin inhibitor and are indicative of the ring stabilizer activity.

native brain dynamin I = native brain dynamin I (Ovis aries, UniProt A0ACI6NZN1); test: PS liposome-stimulated (helical) dynamin I GTPase activity, inhibition; type: biochemical, sheep; settings: 5 μM, increasing dynamin concentrations, FIG. 1
native brain dynamin I, sequence (A0ACI6NZN1 entry or part of it): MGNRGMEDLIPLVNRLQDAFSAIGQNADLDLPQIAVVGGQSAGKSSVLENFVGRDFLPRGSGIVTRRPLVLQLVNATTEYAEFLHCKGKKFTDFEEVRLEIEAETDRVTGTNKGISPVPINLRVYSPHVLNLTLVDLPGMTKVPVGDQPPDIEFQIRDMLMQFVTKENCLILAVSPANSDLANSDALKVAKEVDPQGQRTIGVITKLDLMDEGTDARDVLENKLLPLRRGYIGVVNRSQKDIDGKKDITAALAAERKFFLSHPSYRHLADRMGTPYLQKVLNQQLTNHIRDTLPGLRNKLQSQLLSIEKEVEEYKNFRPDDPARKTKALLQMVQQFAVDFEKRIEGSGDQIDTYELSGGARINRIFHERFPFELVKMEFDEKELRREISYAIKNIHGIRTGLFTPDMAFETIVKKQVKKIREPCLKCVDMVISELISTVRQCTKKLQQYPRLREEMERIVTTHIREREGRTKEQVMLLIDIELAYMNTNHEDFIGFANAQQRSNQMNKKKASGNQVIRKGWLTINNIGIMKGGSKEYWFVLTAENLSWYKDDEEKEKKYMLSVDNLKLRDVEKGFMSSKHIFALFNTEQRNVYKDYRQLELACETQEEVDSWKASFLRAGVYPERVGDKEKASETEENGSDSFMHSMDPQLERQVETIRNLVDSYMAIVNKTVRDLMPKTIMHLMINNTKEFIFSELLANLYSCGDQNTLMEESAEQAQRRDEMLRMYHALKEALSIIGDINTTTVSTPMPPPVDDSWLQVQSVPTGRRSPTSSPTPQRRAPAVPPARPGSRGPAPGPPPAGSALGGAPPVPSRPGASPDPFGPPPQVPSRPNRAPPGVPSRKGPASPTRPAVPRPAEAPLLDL
Method: Each of the dyngo compounds was synthesized by a simple one-step condensation reaction coupling 3-hydroxy-2-naphthoic acid hydrazide with a variety of hydroxyl substituted benzaldehydes affording a focussed library as illustrated by Scheme 1 below (e.g., by mixing the reagents in ethanol (e.g., 10 ml) in a round bottomed flask, refluxing the mixture for 2 hours, allowing it to cool and removing the solvent in vacuo prior to recrystallizing the product from ethanol although other synthesis methods available).
Among the various classes of dynamin inhibitors are subsets of dynamin ring stabilizers.

`N#CC(=Cc1cc(O)c(O)c(O)c1)C(=O)NCCCNC(=O)C(C#N)=Cc1cc(O)c(O)c(O)c1` [Bis-T-23, 2-cyano-N-{3-[2-cyano-3-(3,4,5-trihydroxyphenyl)-acryloylamino]-propyl}-3-(3,4,5-trihydroxyphenyl)-acrylamide] was tested, and the “basal rate of GTP hydrolysis of dynamin” value (full length dynamin I) was “increased the rate of basal dynamin GTP hydrolysis to a similar level to addition of Gsn-F-actin complexes”, the “effect on basal GTPase activity of GG2” value [1] was “no effect” and the “increase in bona fide dynamin rings” value [2] was 6 fold. For the same compound, the “inhibition of liposome-stimulated dynamin GTPase activity” value (native brain dynamin I) was “potently inhibits dynamin at all points”.
